# Results published in patent publication US20160175225A1, “Peptides and Their Use in the Treatment of Skin” (AVON PRODUCTS, INC., priority 2014, published 2016).
# Columns and labels:
# [1] = system: Human dermal fibroblast cells; test: Pro-collagen I secretion by human dermal fibroblasts (HTRF human pro-collagen I kit); type: cell-based; conditions: percent change relative to vehicle control, 48 h
# Procedure: (§1) Human dermal fibroblast cells were grown in a 96 well plate in DMEM media (available from Corning, N.Y.) supplemented with 10% Fetal Bovine Serum (FBS) and L-glutamine (0.07×10^5 cells/plate). After reaching about 75% confluence, cells were transferred into DMEM media without FBS and incubated for 4-6 hours. Next, cells were treated with a peptide at 0.00001%, 0.0001%, 0.001% final concentration in DMEM media without FBS for 48 h. After treatment the media were collected, and cell viability was measured using MTT. Amount of collagen secreted was tested in the media using HTRF human pro-collagen I kit (available from Cisbio Inc., Bedford, Mass.). Amount of secreted Hyaluronic Acid (HA) was tested in the media using HA Elisa kit (available from Corgenix, Broomfield, Colo.).
# (§2) Results are summarized in Table 5 below as percent change of pro-collagen I and/or HA production relative to vehicle control using the following keys with the peptide concentration provided in parentheses: […]
# [2] = system: Human dermal fibroblast cells; test: Hyaluronic acid (HA) secretion by human dermal fibroblasts (HA Elisa kit); type: cell-based; conditions: percent change relative to vehicle control, 48 h
# Procedure: as §1, §2
# [3] = concentration not given (tested at 0.00001%, 0.0001%, 0.001%)
Substance,"Increase in Pro-Collagen I Production [1, 3]",Increase in HA Production ([2]; peptide concentration 0.001%),"Increase in HA Production [2, 3]",also measured
Ala-Glu-Cys-Lys (AECK) [peptide derived from PDGF],0 (0: <10%),+++ (0.001%) (+++:90-150%),,
EASAEPE,0 (0: <10%),,0 (0: <20%),
GDALQPE,0 (0: <10%),,0 (0: <20%),
"IFGGTVYRS [Ile-Phe-Gly-Gly-Thr-Val-Tyr-Arg-Ser, peptide derived from CTGF]",,++ (0.001%) (++:50-90%),,Increase in Pro-Collagen I Production ([1]; peptide concentration 0.001%): + (0.001%) (+: 10-30%)
LENTKRS,0 (0: <10%),,0 (0: <20%),
Leu-Arg-Leu-Lys (LRLK) [peptide derived from GDF11 and TGFβ],0 (0: <10%),+ (0.001%) (+: 20-50%),,
Met-Val-Val (MVV) [peptide derived from GDF11],0 (0: <10%),,,Increase in HA Production ([2]; peptide concentration 0.0001%): + (0.0001%) (+: 20-50%)
"NRNV: peptide sequence NRNV, origin PDGF, tested in Table 5",0 (0: <10%),,0 (0: <20%),
"QILSKLRL [Gln-Ile-Leu-Ser-Lys-Leu-Arg-Leu, peptide derived from GDF11 and TGFβ]",,,0 (0: <20%),Increase in Pro-Collagen I Production ([1]; peptide concentration 0.001%): + (0.001%) (+: 10-30%)
"QPED: peptide sequence QPED, origin GDF11, tested in Table 5",0 (0: <10%),,0 (0: <20%),
"RKIE: peptide sequence RKIE, origin PDGF, tested in Table 5",0 (0: <10%),,0 (0: <20%),
"RTPKISKPIKFELSG [Arg-Thr-Pro-Lys-Ile-Ser-Lys-Pro-Ile-Lys-Phe-Glu-Leu-Ser-Gly, peptide derived from CTGF]",0 (0: <10%),+ (0.001%) (+: 20-50%),,
"TAKDGAP [Thr-Ala-Lys-Asp-Gly-Ala-Pro, peptide derived from CTGF]",,++ (0.001%) (++:50-90%),,Increase in Pro-Collagen I Production ([1]; peptide concentration 0.00001%): + (0.00001%) (+: 10-30%)
